Holding throughout (format): biochemical
The target in one assay is T1, recombinant human MAO-A (Homo sapiens, UniProt P21397).
T1 construct: purchased BD Biosciences (Bedford, MA, USA)
T1 sequence (P21397 1-527): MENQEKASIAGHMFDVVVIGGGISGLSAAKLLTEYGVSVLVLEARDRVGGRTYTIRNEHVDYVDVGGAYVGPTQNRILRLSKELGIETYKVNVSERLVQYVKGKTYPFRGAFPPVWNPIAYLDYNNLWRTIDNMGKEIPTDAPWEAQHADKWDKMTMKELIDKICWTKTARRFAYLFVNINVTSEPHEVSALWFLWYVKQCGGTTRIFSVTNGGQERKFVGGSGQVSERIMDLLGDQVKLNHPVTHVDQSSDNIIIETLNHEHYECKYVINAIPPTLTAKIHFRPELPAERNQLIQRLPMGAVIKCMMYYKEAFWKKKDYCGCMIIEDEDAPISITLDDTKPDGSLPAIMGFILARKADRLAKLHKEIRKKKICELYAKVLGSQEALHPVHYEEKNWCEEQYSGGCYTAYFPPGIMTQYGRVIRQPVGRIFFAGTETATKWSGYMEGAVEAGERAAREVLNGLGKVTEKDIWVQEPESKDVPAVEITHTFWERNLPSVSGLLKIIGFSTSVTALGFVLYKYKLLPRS
In words: MAO-A inhibition assay (kynuramine oxidative deamination). The following applies: kynuramine 80 μM; mean ± S.D. of at least triplicate observations. As to the method: (§1) To investigate the effect of the isolated constituents from T. diffusa on recombinant human MAO-A and MAO-B, the kynuramine oxidative deamination assay was performed in 384-well plates, as previously reported, with minor modifications. A single fixed concentration of kynuramine substrate and varying concentrations of inhibitor were used to test enzyme inhibition and determine the IC50 values. Kynuramine concentrations for MAO-A and MAO-B were 80 μM and 50 μM, respectively. These concentrations of kynuramine were twice the apparent KM value for substrate binding. The concentrations that were tested for pure constituents were from 0.01 to 100 μM, for MAO-A and MAO-B inhibition assays. Reactions were performed in a clear 384-well microplate (50 μL) with 0.1 M potassium phosphate buffer, pH 7.4. The inhibitors and compounds were dissolved in DMSO, diluted in the buffer solution, and pre-incubated at 37 °C for 10 min (no more than 1.0% DMSO final concentration). […] The enzyme product 4-hydroxyquinoline formation was recorded fluorometrically using a SpectraMax M5 fluorescence plate reader (Molecular Devices, Sunnyvale, CA, USA) with an excitation (320 nm) and emission (380 nm) wavelength, using the SoftMaxPro 6.0 program. The inhibition effects of enzyme activity were calculated as a percent of product formation when compared to the corresponding control (enzyme-substrate reaction) without inhibitors. Controls, including samples in which the enzyme or the substrate was added after stopping the reactions, were simultaneously checked to determine the interference of inherent fluorescence of the test compounds with the measurements. IC50 values for MAO-A and MAO-B inhibition were calculated from the concentration dependent inhibition curves using XLfit, a Microsoft Excel-based plug-in which performs Regression, curve fitting and statistical analysis (IDBS, Bridgewater, NJ, USA).
(§2) The dose-response curves were generated using Microsoft® Excel and the IC50 values were analyzed using XLfit software.

Assay [1] concerns the target T2, recombinant human MAO-B (Homo sapiens, UniProt P27338).
T2 construct: purchased BD Biosciences (Bedford, MA, USA)
T2 sequence (P27338 1-520): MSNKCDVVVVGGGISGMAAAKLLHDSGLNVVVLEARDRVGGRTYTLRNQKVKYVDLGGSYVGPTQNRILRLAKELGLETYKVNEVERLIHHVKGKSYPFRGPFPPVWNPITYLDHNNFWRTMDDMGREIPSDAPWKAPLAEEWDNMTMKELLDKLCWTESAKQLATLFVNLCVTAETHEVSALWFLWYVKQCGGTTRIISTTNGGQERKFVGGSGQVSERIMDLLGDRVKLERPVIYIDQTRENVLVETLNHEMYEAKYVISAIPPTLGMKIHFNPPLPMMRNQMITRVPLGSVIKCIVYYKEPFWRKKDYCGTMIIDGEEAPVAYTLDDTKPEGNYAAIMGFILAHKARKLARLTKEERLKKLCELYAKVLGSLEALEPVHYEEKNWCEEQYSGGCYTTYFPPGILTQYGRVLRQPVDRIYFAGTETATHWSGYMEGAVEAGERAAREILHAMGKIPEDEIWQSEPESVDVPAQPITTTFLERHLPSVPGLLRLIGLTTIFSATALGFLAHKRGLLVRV
The assay can be described thus: MAO-B inhibition assay (kynuramine oxidative deamination). The following applies: for SI MAO-A/-B: Selectivity Index = IC50 MAO-A/IC50 MAO-B; for IC50: kynuramine 50 μM, mean ± S.D. of at least triplicate observations. The procedure: as §1, §2

Assay [2] concerns the target T2, recombinant human MAO-B. In words: Enzyme kinetics and mechanism studies (Lineweaver-Burk). As to conditions: for Type of Inhibition Monoamine Oxidase-B: mechanism / reversibility. As to the method: The assays were run at varying concentrations of the substrate and fixed concentrations of the inhibitor. The Ki (i.e., inhibition/binding affinity) values were computed with double reciprocal Lineweaver–Burk plots.
The controls without inhibitor were also simultaneously run. The results were analyzed by standard double reciprocal Line–Weaver Burk plots for computing Km and Vmax values, which were further analyzed to determine Ki values.

Assay [3] concerns the target T2, recombinant human MAO-B. The assay can be described thus: Reversibility of binding, enzyme-inhibitor complex equilibrium dialysis. As to the method:
The activity of the enzyme was analyzed before and after the dialysis (Figure 4).
The inhibitors bind with the target enzyme through the formation of an enzyme-inhibitor complex. The formation of the enzyme-inhibitor complex may be accelerated in the presence of the high concentration of the inhibitor. […] After 20 min incubation at 37 °C, the reaction was stopped by chilling in an ice bath. All of the samples were dialyzed against potassium phosphate buffer (25 mM; pH 7.4) at 4 °C for 14–18 h (three buffer changes). Control enzyme (without inhibitor) was also run through the same procedure and the activity of the enzyme was determined before and after the dialysis.
(In equilibrium dialysis only unbound substance equilibrates across the membrane.)

In assay [4] the target is T2, recombinant human MAO-B. The assay can be described thus: Time-dependent assay for enzyme inhibition. As to conditions: 0.500 μM; pre-incubation 0–15 min. The procedure:
The control without inhibitors was also run simultaneously. The activity of the enzyme was determined, as described above, and the percentage of enzyme activity remaining was plotted against the pre-incubation time to determine the time-dependence of inhibition.
The controls without inhibitors were also simultaneously run. The activities of the enzymes were determined, as described above, and the percentage of enzyme activity remaining was plotted against the pre-incubation time to determine the time-dependence of inhibition.

The record followed here is paper PMC6412401 (Molecules, 2019).

Entries after “also recorded” stand apart in the source; their conditions may differ.

What is called IC50 is the concentration needed to halve the response being measured. Turning to `COc1cc(-c2cc(=O)c3c(O)cc(O[C@@H]4O[C@H](CO)[C@@H](O)[C@H](O)[C@H]4O)cc3o2)cc(OC)c1O` [Tricin-7-glucoside], the IC50 came to 50.9 ± 0.506 µM on recombinant human MAO-A and 27.4 ± 0.819 µM on recombinant human MAO-B [1]. At recombinant human MAO-B [1], the “SI MAO-A/-B” value turned out to be 1.854.

As a reminder, the Ki is the equilibrium dissociation constant of an inhibitor or competing ligand from its target. Turning to `COc1ccc(-c2cc(=O)c3c(O)cc(OC)cc3o2)cc1` [Acacetin 7-methyl ether, 5-hydroxy-4′, 7-dimethoxyflavone], at recombinant human MAO-A, the IC50 is > 100 µM. For the same molecule, on recombinant human MAO-B [1], the “selectivity for MAO-B over MAO-A” value was > 500 fold, the “SI MAO-A/-B” value is >505.051 and the IC50 came out at 0.198 ± 0.001 µM. Further, at recombinant human MAO-B [1] (higher concentrations, ~20% activity remaining), the “plateau of concentration-dependent inhibition of MAO-B” value was ~ 80 % inhibition. Moreover, on recombinant human MAO-B [2], the “Type of Inhibition Monoamine Oxidase-B” value is “Competitive/Partially Reversible”. Also, the “Type of Inhibition Monoamine Oxidase-B” value at recombinant human MAO-B [2] (listed as acacetin 7-methyl ether) is on record as “reversible competitive inhibitor”. Besides, on recombinant human MAO-B [2] (varying kynuramine, mean ± S.D. of triplicate experiments, read-out: Ki Monoamine Oxidase-B), the Ki is 45 ± 3 nM. For the same molecule, the “inhibition of MAO-B activity after incubation, before dialysis” value at recombinant human MAO-B [3] (1.0 and 2.0 μM, 20 min incubation) is given as > 60%. For the same molecule, on recombinant human MAO-B [3] (1.0 and 2.0 μM, dialyzed overnight), the “activity of the enzyme recovered after equilibrium dialysis” value is listed as ~ 80%. In addition, on recombinant human MAO-B [3] (equilibrium dialysis), the “reversibility of binding to MAO-B” value is reported as “partially reversible”. For the same molecule, the “time dependence of binding/inhibition of MAO-B” value on recombinant human MAO-B [4] was “time-independent; also recorded: not dependent on the pre-incubation time”.

Regarding `COc1ccc(-c2cc(=O)c3c(O)cc(O)cc3o2)cc1` [Acacetin], the IC50 at recombinant human MAO-A came to 0.115 ± 0.004 µM. Moreover, the “Type of Inhibition Monoamine Oxidase-B” value at recombinant human MAO-B [2] is “Competitive/Reversible”.

As to `C[C@@H]1O[C@@H](O[C@@H]2[C@@H](O)[C@H](O)[C@@H](CO)O[C@H]2c2c(O)cc(O)c3c(=O)cc(-c4ccc(O)cc4)oc23)[C@H](O)[C@H](O)[C@H]1O` [Rhamnosylvitexin], the IC50 on recombinant human MAO-A stood at 40.9 ± 6.81 µM. Further, at recombinant human MAO-B [1], the “SI MAO-A/-B” value is 1.557 and the IC50 was found to be 26.3 ± 0.277 µM.

As to `O=C(/C=C/c1ccc(O)cc1)OC[C@H]1O[C@@H](Oc2cc(O)c3c(=O)cc(-c4ccc(O)cc4)oc3c2)[C@H](O)[C@@H](O)[C@@H]1O` [Apigenin-7-O-β-D-(6-O-p-coumaroyl) glucoside], the IC50 at recombinant human MAO-A was found to be 22.5 ± 4.44 µM. For the same molecule, at recombinant human MAO-B [1], the “SI MAO-A/-B” value turned out to be 1.023 and the half-inhibitory concentration (IC50) turned out to be 22 ± 1.76 µM.

On to `COc1cc(O)c2c(=O)cc(-c3ccc(O)c(OC)c3)oc2c1` [Vetulin], for which, at recombinant human MAO-A, the IC50 came out at 18.8 ± 0.291 µM. For the same molecule, at recombinant human MAO-B [1], the “SI MAO-A/-B” value came to 42.056 and the half-inhibitory concentration (IC50) was 0.447 ± 0.01 µM.
